# Source: US20170029355A1, “LABILE ESTERS OF AGROCHEMICALS FOR CONTROLLED RELEASE AND REDUCTION OF OFF-SITE MOVEMENT” (Monsanto Technology LLC, priority 2011, published 2017)
# What was measured:
# hemp sesbania = experiment: Field testing of emulsifiable concentrates, post-emergent control (Example 38); type: in vivo; settings: for post-emergent control of hemp sesbania compared with the dicamba salt, in words: 280 and 420 g dicamba acid equivalent per hectare; for % control, 280 g/ha, Hemp sesbania: 280 g dicamba acid equivalent per hectare; for % control, 280 g/ha, Hemp sesbania / % control, 420 g/ha, Hemp sesbania: 11 or 21 days after treatment; for % control, 420 g/ha, Hemp sesbania: 420 g dicamba acid equivalent per hectare
# Source text: (§1) Four dicamba esters, 1a, 2, 9, and 13a, were formulated as emulsifiable concentrates for field testing. All formulations contained 5% each of a alkylbenzene sulfonate calcium salt (Huntsman NANSA EVM 62/H or Akzo Nobel WITCONATE P-1220 EH) and castor oil ethoxylate (Huntsman SURFONIC CO-54) as the emulsifiers and Aromatic 200 (Exxon) or monochlorobenzene (MCB) as the solvent.
# (§2) The esters were compared to the diglycolamine salt of dicamba (CLARITY™) for post-emergent control of three broadleaf weeds: velvetleaf, morning glory, and hemp sesbania. Rates of 280 and 420 g dicamba acid equivalent per hectare were used. […] Evaluations were conducted at 11 or 21 days after treatment. Locations and timing were identical for all formulations tested.
# velvetleaf [1] = experiment: as above; type: in vivo; settings: for post-emergent control of velvetleaf compared with the dicamba salt, in words: 280 and 420 g dicamba acid equivalent per hectare; for % control, 280 g/ha, Velvetleaf: 280 g dicamba acid equivalent per hectare; for % control, 280 g/ha, Velvetleaf / % control, 420 g/ha, Velvetleaf: 11 or 21 days after treatment; for % control, 420 g/ha, Velvetleaf: 420 g dicamba acid equivalent per hectare
# Source text: as §1, §2
# morning glory = experiment: as above; type: in vivo; settings: for post-emergent control of morning glory compared with the dicamba salt, in words: 280 and 420 g dicamba acid equivalent per hectare; for % control, 280 g/ha, Morning glory: 280 g dicamba acid equivalent per hectare; for % control, 280 g/ha, Morning glory / % control, 420 g/ha, Morning glory: 11 or 21 days after treatment; for % control, 420 g/ha, Morning glory: 420 g dicamba acid equivalent per hectare
# Source text: as §1, §2
# [2] = system: glyphosate-tolerant, dicamba-sensitive soy plants; experiment: Humidome volatility injury to dicamba-sensitive plants (Example 31); settings: assessed after three weeks in greenhouse; for % Injury: soy plants 24 hours in closed humidome over sprayed soil (0.5% dicamba equivalent + 1.5% glyphosate), 35° C.; for Growth Stage: soy plants 24 hours in closed humidome over sprayed soil
# Source text: In this case, the diglycolamine salt of dicamba (CLARITY®) was used for comparison.
# Dicamba photo-labile ester formulations from Example 28 were mixed with a commercial glyphosate formulation (ROUNDUP POWERMAX®) and diluted to provide a solution with a 0.5% dicamba equivalent concentrate of the ester (or dicamba diglycolamine salt) and 1.5% concentrate of glyphosate. The mixtures were sprayed at a 10 gallon per acre (93.5 liters per hectare) rate on soil in a plastic container (“humidome”) with a transparent lid. One soil container was sprayed with water as a control. Four glyphosate-tolerant, dicamba-sensitive soy plants between V2 and V3 stage were immediately placed on the sprayed soil and the domes attached to the trays with binder clips. The soy plants were in pots placed directly on the soil but with aluminum foil wrapped around the bottom to prevent uptake of dicamba or dicamba esters through the roots.
# The closed containers were held for 24 hours in a growth chamber which was maintained at 35° C. with 40% relative humidity. The plants were then removed and grown in a greenhouse for three weeks. At this time plant injury and growth stage were assessed compared to the control treated with water only.
# velvetleaf [3] = experiment: Greenhouse post-emergent control of velvetleaf by emulsifiable concentrates (Example 29); type: in vivo; settings: three weeks after treatment
# How it was run: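 Greenhouse velvetleaf 10–15 cm tall sprayed post-emergence with photo-labile ester emulsifiable concentrates at 140, 280, 420 and 560 g dicamba equivalent/ha, alongside dicamba diglycolamine salt at the same rates and untreated plants. Percent control scored three weeks after treatment.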
# Euphorbia species = experiment: Field testing for post-emergent activity in the Southern Hemisphere (Example 39); type: in vivo; settings: 9 as suspension concentrate, other esters as emulsifiable concentrates; for % control, 0.25 lb/ac (0.28 kg/hectare): 0.25 lb dicamba a.e. per acre; for % control, 0.50 lb/ac (0.56 kg/hectare): 0.50 lb dicamba a.e. per acre
# Procedure: The primary weeds were Euphorbia species. Ester 9 was tested as a suspension concentrate using the formulation of Example 33 The other esters were tested as emulsifiable concentrates having the formulations shown in the table below. Akzo Nobel SPONTO EC 334 and SPONTO EC 336 along with SURFONIC CO-54 and […] (Huntsman) were used as emulsifiers and Aromatic 200 (A 200; Exxon) was used as the solvent. […] The diglycolamine salt of dicamba (CLARITYTM) was used as a comparator.
# [4] = In vitro photo-release and hydrolytic release of dicamba in an aqueous medium (Example 35); type: physicochemical; settings: 0.01 mM ester, 35° C.
# Procedure: This Example describes the determination of photo-lability and hydrolytic lability of dicamba esters in an aqueous medium. 1 mM solutions of the esters were prepared in acetonitrile (or […] solutions of dicamba diesters). The solutions were then diluted with deionized water to a concentration of 0.01 mM (or 0.005 mM for diesters). The solutions were then transferred to quartz tubes and amber bottles and held in a growth chamber by the procedure of Example 26. A 14-hour day was generally used at a constant temperature of 35° C. Hydrolytic activity was assessed by measuring the increase in dicamba concentration after day zero in the amber (dark) bottles. […] Photolysis manifested itself as increased conversion in the quartz tubes compared to the dark control.
# broadleaf weeds = experiment: Control of broadleaf weeds by ester concentrates (statements of the description); type: in vivo; settings: for control of a number of broadleaf weeds in field testing, in words: emulsifiable and suspension concentrates, Sesbania macrocarpa, morning glory, velvetleaf, Palmer amaranth, fat hen, sicklepod
# [5] = In vitro dicamba photo-release from photo-labile dicamba esters, tetrahydrofuran solvent (Example 26); type: physicochemical; settings: THF, 0.1 mM ester; for Dark Control % dicamba: initial solution kept away from the light source, analyzed at conclusion of study
# How it was run: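 Esters at 0.1 mM in THF, sealed in quartz tubes and exposed to simulated sunlight 14 h per day at 35 °C. Dicamba released was measured over the photolysis, with an unilluminated sample of the starting solution serving as dark control.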
# [6] = simulated sunlight 14 hours per day, 35° C.
structure (smiles),measurement,setting,value
"COc1c(Cl)ccc(Cl)c1C(=O)OCc1ccccc1[N+](=O)[O-] [Ester 1a, 2-Nitrobenzyl Ester of Dicamba]","post-emergent control of hemp sesbania compared with the dicamba salt, in words",hemp sesbania,equivalent to the dicamba salt
same,"% control, 280 g/ha, Hemp sesbania",hemp sesbania,95%
same,"% control, 420 g/ha, Hemp sesbania",hemp sesbania,98%
same,"post-emergent control of velvetleaf compared with the dicamba salt, in words",velvetleaf [1],equivalent to the dicamba salt
same,"% control, 280 g/ha, Velvetleaf",velvetleaf [1],86%
same,"% control, 420 g/ha, Velvetleaf",velvetleaf [1],92%
same,"post-emergent control of morning glory compared with the dicamba salt, in words",morning glory,equivalent to the dicamba salt
same,"% control, 280 g/ha, Morning glory",morning glory,100%
same,"% control, 420 g/ha, Morning glory",morning glory,98%
same,% Injury,[2],8%
same,Growth Stage,[2],8
same,"% Control of velvetleaf, 140 g/ha",velvetleaf [3]; 140 g dicamba equivalent per hectare,46%
same,"% Control of velvetleaf, 280 g/ha",velvetleaf [3]; 280 g dicamba equivalent per hectare,60%
same,"% Control of velvetleaf, 420 g/ha",velvetleaf [3]; 420 g dicamba equivalent per hectare,75%
same,"% Control of velvetleaf, 560 g/ha",velvetleaf [3]; 560 g dicamba equivalent per hectare,73%
same,"% control, 0.25 lb/ac (0.28 kg/hectare)",Euphorbia species,72%
same,"% control, 0.50 lb/ac (0.56 kg/hectare)",Euphorbia species,78%
same,"Conversion to Dicamba, Dark, Day 0",[4]; amber (dark) bottle,7%
same,"Conversion to Dicamba, Dark, Day 1",[4]; amber (dark) bottle,8%
same,"Conversion to Dicamba, Dark, Day 2",[4]; amber (dark) bottle,8%
same,"Conversion to Dicamba, Dark, Day 3",[4]; amber (dark) bottle,8%
same,"Conversion to Dicamba, Dark, Day 4",[4]; amber (dark) bottle,7%
same,"Conversion to Dicamba, Dark, Day 7",[4]; amber (dark) bottle,8%
same,"Conversion to dicamba, Dark, Day 10","[4]; amber (dark) bottle, Day 10",8%
same,"Conversion to Dicamba, Dark, Day 14",[4]; amber (dark) bottle,8%
same,"Conversion to Dicamba, Dark, Day 21","[4]; amber (dark) bottle, Day 21",8%
same,"Conversion to Dicamba, Dark, Day 28","[4]; amber (dark) bottle, Day 28",8%
same,"Conversion to Dicamba, Light, Day 0","[4]; quartz tube, 14-hour day",7%
same,"Conversion to Dicamba, Light, Day 1","[4]; quartz tube, 14-hour day",13%
same,"Conversion to Dicamba, Light, Day 2","[4]; quartz tube, 14-hour day",16%
same,"Conversion to Dicamba, Light, Day 3","[4]; quartz tube, 14-hour day",18%
same,"Conversion to Dicamba, Light, Day 4","[4]; quartz tube, 14-hour day",21%
same,"Conversion to Dicamba, Light, Day 7","[4]; quartz tube, 14-hour day",29%
same,"Conversion to dicamba, Light, Day 10","[4]; quartz tube, 14-hour day, Day 10",37%
same,"Conversion to Dicamba, Light, Day 14","[4]; quartz tube, 14-hour day",54%
same,"Conversion to Dicamba, Light, Day 21","[4]; quartz tube, 14-hour day, Day 21",75%
same,"Conversion to Dicamba, Light, Day 28","[4]; quartz tube, 14-hour day, Day 28",107%
same,"control of a number of broadleaf weeds in field testing, in words",broadleaf weeds,proven effective
same,"field efficacy for control of broadleaf weeds compared with the diglycolamine salt of dicamba, in words",broadleaf weeds; field tests of emulsifiable concentrates,slightly more effective than the diglycolamine salt of dicamba
same,Dark Control % dicamba,[5],1%
same,"Conversion to dicamba, 1 day",[5]; [6],22%
same,"Conversion to dicamba, 2 days",[5]; [6],33%
same,"Conversion to dicamba, 3 days",[5]; [6],47%
same,"Conversion to dicamba, 5 days",[5]; [6],66%
same,"Conversion to dicamba, 7 days",[5]; [6],76%
"COc1c(Cl)ccc(Cl)c1C(=O)Oc1cnc2ccccc2n1 [Ester 13a, 2-quinoxalinol ester of dicamba]","post-emergent control of hemp sesbania compared with the dicamba salt, in words",hemp sesbania,equivalent to the dicamba salt
same,"% control, 280 g/ha, Hemp sesbania",hemp sesbania,95%
same,"% control, 420 g/ha, Hemp sesbania",hemp sesbania,98%
same,"post-emergent control of velvetleaf compared with the dicamba salt, in words",velvetleaf [1],nearly equivalent to the dicamba salt
same,"% control, 280 g/ha, Velvetleaf",velvetleaf [1],72%
same,"% control, 420 g/ha, Velvetleaf",velvetleaf [1],84%
same,"post-emergent control of morning glory compared with the dicamba salt, in words",morning glory,equivalent to the dicamba salt
same,"% control, 280 g/ha, Morning glory",morning glory,100%
same,"% control, 420 g/ha, Morning glory",morning glory,100%
same,% Injury,[2],18%
same,Growth Stage,[2],8
same,"% control, 0.25 lb/ac (0.28 kg/hectare)",Euphorbia species,46%
same,"% control, 0.50 lb/ac (0.56 kg/hectare)",Euphorbia species,55%
same,"Conversion to Dicamba, Dark, Day 0",[4]; amber (dark) bottle,8%
same,"Conversion to Dicamba, Dark, Day 1",[4]; amber (dark) bottle,7%
same,"Conversion to Dicamba, Dark, Day 2",[4]; amber (dark) bottle,7%
same,"Conversion to Dicamba, Dark, Day 3",[4]; amber (dark) bottle,8%
same,"Conversion to Dicamba, Dark, Day 4",[4]; amber (dark) bottle,8%
same,"Conversion to Dicamba, Dark, Day 7",[4]; amber (dark) bottle,9%
same,"Conversion to dicamba, Dark, Day 11","[4]; amber (dark) bottle, Day 11",11%
same,"Conversion to Dicamba, Dark, Day 14",[4]; amber (dark) bottle,12%
same,"Conversion to Dicamba, Light, Day 0","[4]; quartz tube, 14-hour day",8%
same,"Conversion to Dicamba, Light, Day 1","[4]; quartz tube, 14-hour day",9%
same,"Conversion to Dicamba, Light, Day 2","[4]; quartz tube, 14-hour day",12%
same,"Conversion to Dicamba, Light, Day 3","[4]; quartz tube, 14-hour day",13%
same,"Conversion to Dicamba, Light, Day 4","[4]; quartz tube, 14-hour day",13%
same,"Conversion to Dicamba, Light, Day 7","[4]; quartz tube, 14-hour day",15%
same,"Conversion to dicamba, Light, Day 11","[4]; quartz tube, 14-hour day, Day 11",19%
same,"Conversion to Dicamba, Light, Day 14","[4]; quartz tube, 14-hour day",20%
same,"control of a number of broadleaf weeds in field testing, in words",broadleaf weeds,proven effective
same,Dark Control % dicamba,[5],11%
same,"Conversion to dicamba, 1 day",[5]; [6],28%
same,"Conversion to dicamba, 2 days",[5]; [6],35%
same,"Conversion to dicamba, 3 days",[5]; [6],43%
same,"Conversion to dicamba, 5 days",[5]; [6],48%
same,"Conversion to dicamba, 7 days",[5]; [6],61%
same,"Conversion to dicamba, 11 days","[5]; simulated sunlight 14 hours per day, 35° C., 11 days",66%
same,"Conversion to dicamba, 15 days","[5]; simulated sunlight 14 hours per day, 35° C., 15 days",68%
